Experimental data as given in patent publication US20250276993A1, “PSEUDO-DISACCHARIDE COMPOUNDS” (UNIVERSITEIT LEIDEN, priority 2022, published 2025).

Key:
HPSE (platelet) = target: T1, HPSE (platelet) (Homo sapiens, UniProt Q9Y251); assay: cABPP Assay 2, platelet lysates, HPSE; format: biochemical
T1 construct: endogenous in cells; host or cells: human platelet lysates
T1 sequence (Q9Y251 158-543 limits assumed): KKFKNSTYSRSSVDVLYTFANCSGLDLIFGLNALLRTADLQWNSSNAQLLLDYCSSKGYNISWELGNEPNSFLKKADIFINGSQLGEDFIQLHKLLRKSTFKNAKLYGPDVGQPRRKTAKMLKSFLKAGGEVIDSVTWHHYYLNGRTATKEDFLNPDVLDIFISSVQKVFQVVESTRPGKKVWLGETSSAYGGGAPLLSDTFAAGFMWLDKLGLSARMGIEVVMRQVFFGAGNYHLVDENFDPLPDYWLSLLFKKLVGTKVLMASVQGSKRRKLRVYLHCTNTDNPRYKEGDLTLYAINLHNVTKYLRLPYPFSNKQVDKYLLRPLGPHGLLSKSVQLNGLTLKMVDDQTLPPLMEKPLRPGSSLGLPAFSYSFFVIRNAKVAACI
T1 sequence (Q9Y251 36-109 limits assumed): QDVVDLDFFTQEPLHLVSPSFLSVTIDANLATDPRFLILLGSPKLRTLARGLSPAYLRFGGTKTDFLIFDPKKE
Procedure: For further competitive ABPP studies, a working protein mixture was prepared by mixing the platelet lysates (87.5 μL), buffer (pH 5.0, 150 mM, 157.5 μL) and 3 M NaCl solution (35 μL). The enzymatic reactions were carried out at a constant concentration of read-out 7 (100 nM, final). For each inhibitor 2, 12 and 13, triplicate sets of ten 0.5 mL low protein binding Eppendorf tubes were prepared. Working solutions of each inhibitor (1% DMSO (w/v), 5 μL) in a range of ten concentrations (100, 50, 25, 12.5, 6.3, 3.1, 1.6, 0.8, 0.4, 0 μM) were prepared with MilliQ water and kept on ice. The working protein mixture (8 μL) was added in each protein low binding 0.5 mL Eppendorf tube, and 1 μL of inhibitor solution was added while on ice.
Further cABPP studies were undertaken using platelet lysates to provide a more physiologically realistic environment. Platelet lysates contain complex mixtures of overlapping enzyme activities, including both endo- and exo-β-glucuronidases HPSE and GUSB respectively, thus provide a challenging environment to test inhibitor specificity.

HPSE [1] = target: T2, HPSE (Homo sapiens, UniProt Q9Y251); assay: Fondaparinux cleavage assay; format: biochemical
T2 sequence (Q9Y251 36-109 limits assumed): T1 sequence (Q9Y251 36-109 limits assumed)
T2 sequence (Q9Y251 158-543 limits assumed): T1 sequence (Q9Y251 158-543 limits assumed)

U87 glioblastoma cells = assay: Matrigel invasion assay; format: cell-based, human; details: 20 μM inhibitor, 4 h
Procedure: The Matrigel invasion assay was used to assess the effects of the compounds of the invention on cancer cell aggression. This is an in cellulo model of cell invasion through a HSPG rich basement membrane. The ability of cells to migrate through transwell inserts coated with Matrigel (an ECM secretion from Engelbreth-Holm-Swarm mouse sarcoma cells) correlates well with their in vivo invasive potential (Hall et al., Methods Mol Biol, 1070, 1-11 (2014)).
1×10^5 U87 cells in 200 μL DMEM media (without serum) were seeded onto the top chamber of a Matrigel-coated Boyden transwell filter, alongside 20 μM HPSE inhibitor (or PBS control). Cells in the upper chamber were separated by Matrigel from a lower chamber containing 600 μL DMEM, supplemented with 10% FBS. Plates were incubated at 37° C. for 4 h, before fixing cells in 4% (v/v) paraformaldehyde, and staining with 0.5% (w/v) crystal violet. Matrigel and non-migrating cells in the upper side of the Boyden filter were removed by swabbing, then invading cells on the bottom side of the transwell filter imaged for analysis. 10 randomly selected microscopic fields were recorded, and cell invasion calculated using ImageJ, by quantitating the percentage of the field stained by crystal violet. Graphs were plotted using RStudio.
The Matrigel invasion assay was used to assess the effects of the compounds of the invention on cancer cell aggression. […]

CAG human myeloma cells = assay: CAG myeloma metastasis model; format: in vivo, NOD/SCID mice
Procedure: CAG myeloma—Luciferase-labeled CAG human myeloma cells (3×10^6) were injected into the tail vein of NOD/SCID mice. 3-5 days after cell inoculation, mice were randomly assigned to 4 cohorts (6 mice each) receiving: (a) vehicle, (b) compound 2 (i.p. 300 nmol/day), (c) bortezomib (0.5 mg/kg twice weekly) or (d) 2 plus bortezomib (dosing as for individual compounds). Tumor development was inspected (every 7 days) by IVIS imaging as detailed above. Tumor burden was quantified using Living Image software. Plots and statistical analyses were carried out in Prism 9 (Graphpad software).

HPSE [2] = target: T2, HPSE; assay: X-ray crystallography, ligand soaking of HPSE crystals; details: crystal soaking
Excerpt: Xray diffraction data were collected at 100 K at beamlines i03 (HPSE-2, HPSE-3, HPSE-4, EcGUSB-1, BpHep-3), i04 (AcGH79-2, BpHep-2) and i04-1 (Apo-AcGH79, AcGH79-1, AcGH79-3) of the Diamond Light Source UK. Reflections were autoprocessed using the XIA2 pipeline. Complexes were solved by directly refining against their unliganded structures where isomorphous, or else solved by molecular replacement with PHASER (search model PDB accessions: 5E98 (HPSE), 3VNY (AcGH79), 3K46 (EcGUSB), 5BWI (BpHep)). […] Ligand coordinates were built using jLigand. Diagrams were generated using PyMOL.
HPSE—Well diffracting crystals of HPSE were obtained by the sitting-drop vapor-diffusion method at 20° C. using a well solution containing 0.1 M MES pH 5.5, 0.1 M MgCl2, 17% (w/v) PEG 3350, and a protein to well solution ratio of 200 nl:500 nl. Crystals typically appeared after 1 week. Inhibitor ligand complexes were obtained by transferring HPSE crystals to drops of well solution supplemented with 25% (v/v) ethylene glycol and 1-5 mM inhibitor. Crystals were incubated with ligand for ˜2-4 h, then directly harvested and flash-cooled in LN2 for data collection.
To better understand the molecular basis of interaction between our inhibitors and their targets, we turned to X-ray crystallography, using ligand soaking to derivatize enzymes in crystallo.

IC50 (HPSE (platelet); apparent IC50, in-gel competitive ABPP-based assay, platelet lysate, read-out: In vitro IC50 HPSE (platelet)): 900 ± 300 nM
inhibitor concentration down to which HPSE signal is abrogated (HPSE (platelet); platelet lysates, preincubation with inhibitor): 2.5 µM
fold more potent than reference inhibitors #98 (10) and OGT2115 (11) (HPSE [1]): approximately 2 fold
SMILES: CC(=O)NC1C(O)[C@H](O)C(CO)O[C@@H]1O[C@H]1C(O)C(O)[C@@H]2OC2C1C(=O)O (stereo partly drawn) [Compound 2, 4-O-(2-N-acetyl-2-deoxy-D-glucopyranosyl)-glucurono-cyclophellitol]
Matrigel invasion (U87 glioblastoma cells): significantly reduced Matrigel invasion
metastatic burden (CAG myeloma) (CAG human myeloma cells; 2: i.p. 300 nmol/day, bortezomib 0.5 mg/kg twice weekly, IVIS imaging): marked reduction in metastatic burden
efficacy at prolonged treatment (CAG myeloma) (CAG human myeloma cells; 33 day timepoint): lower efficacy following prolonged treatment
binding mode in HPSE active site cleft (HPSE [2]): covalent linkages between their pseudo-anomeric carbons and the enzyme nucleophile Glu343
